Test results: US9579299B2, “CNS pharmaceutical compositions and methods of use” (TARGIA PHARMACEUTICALS, priority 2008, dated 2017)
Where two headings read alike, the source gives them in different places.

Columns and labels:
[1] = cited from earlier work
[2] = cited from earlier work; remark: listed apart in the source
[3] = cited from earlier work; remark: listed apart in the source
[4] = cited from earlier work; remark: listed apart in the source
treated patients = details: cited from earlier work; for Psychiatric side-effects: anti-epileptics
[5] = antiparkinsonian drugs; cited from earlier work
[6] = in vivo; cited from earlier work
subject = test: Example 4: Flunitrazepam with pseudoephedrine and Mucinex, subject report
patient = test: Example 1: patient with tooth pain, Soma with neuromodulators; type: in vivo, human; details: Soma with 60 mg Pseudoephedine, 600 mg Guaifenesin 10 min later
Method: A patient had experienced tooth pain. The patient was given the following treatment: at 11:00 a.m.-co-administration of Soma (Carisoprodol) with 60 mg of Pseudoephedine. At 11:10 a.m.-600 mg of Guaifenesin. […] At no time during the treatment did the patient feel somnolent or have any desire to sleep.

healthy volunteer = test: Example 2: volunteer with lower back pain, Soma with neuromodulators; type: in vivo, human
Method: A healthy volunteer was prescribed 250 mg two times a day Soma by their family doctor for reduction of lower back pain. […] The volunteer agreed to take Soma during the day together with the neuromodulation treatment. They took Soma in the morning and afternoon together with Pseudoephedrine followed 15 minutes later by Guaifenisin.

[7] = oral ingestion 75-100 mg/kg in humans
[8] = Soma with Pseudoephedrine, Guaifenisin 15 minutes later, two-day regimen

In the case of `O=C(O)CCCO` [GHB, g-Hydroxybutyric acid], the Tmax ([1]; CNS active agent) is given as 0.5 to 2 h, the Tmax ([2]; 25 mg/kg) is given as “approximately 30 minutes” and the Tmax ([2]; 50 mg/kg) is given as “around 45 minutes”. The peak blood levels [2, 7] was 90 to 100 µg/mL, the “time of peak blood levels after ingestion” value [2, 7] was 1 to 2 h and the onset of action ([2]; orally) was at most 15 min.
For `Cc1cc(C)cc(OCC2CNC(=O)O2)c1` (stereo not drawn) [Metaxalone], the Half-life ([3]; in vivo) is given as 5 to 12 h, the Tmax ([3]; in vivo) is given as 3 h and the duration ([4]; in vivo) is given as “four to six hours”.
For `Cc1ccsc1C(=CCCN1CCC[C@@H](C(=O)O)C1)c1sccc1C` [Tiagabine], the Psychiatric side-effects (treated patients) is given as “Psychosis (0.8% of treated patients), depressive symptoms” and the “Psychosis, % of treated patients” value (treated patients) is given as 0.8%.
In the case of `CN1CCc2cccc3c2[C@H]1Cc1ccc(O)c(O)c1-3` [Apomorphine], the Psychiatric side-effects [5] is listed as “Sedation, psychomotor agitation, anxiety,” and the Tmax ([3]; stated in words (injection / IV)) is listed as “(fast, but injection)”.
In the case of `CN(C)CCC=C1c2ccccc2C=Cc2ccccc21` [Cyclobenzaprine], the Elimination Half-Life [6] is given as 24 to 72 h, the Half-life ([3]; in vivo) is given as 8 to 37 h and the Tmax ([3]; in vivo) is given as 1 to 2 h. For the same molecule, the Half-life ([3]; in vivo, listed as Flexeril) was 24 to 72 h and the Tmax ([3]; in vivo, listed as Flexeril) was 1 h.
For `C=CCN1C[C@H](C(=O)N(CCCN(C)C)C(=O)NCC)C[C@@H]2c3cccc4[nH]cc(c34)C[C@H]21` [Cabergoline], the Psychiatric side-effects [5] is given as “Sedation, psychomotor agitation, anxiety,”, the Half-life ([3]; in vivo) is given as 63 to 69 h and the Tmax ([3]; in vivo) is given as 0.5 to 4 h.
For `NC(=O)N1c2ccccc2C=Cc2ccccc21` [Carbamazepine], the Elimination Half-Life [6] is listed as “about 12 hours” and the Psychiatric side-effects (treated patients) is listed as “Depression, agitation, sedation, psychosis, cognitive”.
For `CCCC(CCC)C(=O)[O-].[Na+]` [Sodium valproate], the Psychiatric side-effects (treated patients) is given as “Sedation, hallucinations, depressive symptoms, delirium”.
For `CCCN(CCC)CCc1cccc2c1CC(=O)N2` [Ropinirole], the Psychiatric side-effects [5] is given as “Sedation, psychomotor agitation, anxiety,”, the Half-life ([3]; in vivo) is given as 6 h and the Tmax ([3]; in vivo) is given as 1 to 2 h.
For `CC(C)C[C@H]1C(=O)N2CCC[C@H]2[C@]2(O)O[C@](NC(=O)[C@@H]3C=C4c5cccc6[nH]c(Br)c(c56)C[C@H]4N(C)C3)(C(C)C)C(=O)N12` [Bromocriptine], the Psychiatric side-effects [5] is given as “Sedation, psychomotor agitation, anxiety,”, the Half-life ([3]; in vivo) is given as 7 h and the Tmax ([3]; in vivo) is given as 1 to 2 h.
For `CNC[C@H](O)c1cccc(O)c1` [Phenylephrine], the Tmax ([1]; selected neuromodulators) is listed as 0.167 to 0.25 h and the “duration of anti-hypotensive effect” value ([4]; after a single intravascular injection) is listed as “approximately 20 minutes”.
For `CN1[C@@H]2CC[C@H]1C[C@@H](OC(c1ccccc1)c1ccccc1)C2` [Benzatropine], the Psychiatric side-effects [5] is listed as “Sedation, anxiety, psychosis, delirium,”, the Half-life ([3]; in vivo) is listed as 36 h and the Tmax ([3]; in vivo) is listed as 1 to 2 h.
For `CC[C@@H](C(N)=O)N1CCCC1=O` [Levetiracetam], the Psychiatric side-effects (treated patients) is given as “Irritability, sedation and psychosis”.
For `CCCN1C[C@H](CSC)C[C@@H]2c3cccc4[nH]cc(c34)C[C@H]21` [pergolide], the Psychiatric side-effects [5] is listed as “Sedation, psychomotor agitation, anxiety,”.
For `CN1C(=O)CN=C(c2ccccc2F)c2cc([N+](=O)[O-])ccc21` [Flunitrazepam], the subject-reported effects (subject; Flunitrazepam 0.5 mg, 15 minutes later pseudoephedrine 60 mg and Mucinex 600 mg) was “a little “loopy”” and the subject-reported effects (subject; Flunitrazepam 1.0 mg, at the same time pseudoephedrine 60 mg and Mucinex 600 mg) was “started to feel tranquilized”.
In the case of `CCCN[C@H]1CCc2nc(N)sc2C1` [Pramipexole], the Psychiatric side-effects [5] is listed as “Sedation, psychomotor agitation, anxiety,” and the Tmax ([3]; in vivo) is listed as 1 h.
In the case of `CCCC(C)(COC(N)=O)COC(=O)NC(C)C` (stereo not drawn) [Carisoprodol], the Half-life ([3]; in vivo) is listed as 2.5 h, the Tmax ([3]; in vivo) is listed as 1.5 to 2 h and the “sedation or other side-effects reported by patient” value (patient) is listed as “without any sedation or other side-effects”. The “pain reported by patient” value (patient; tooth pain) was “less pain than prior to the procedure”, the sedative side-effect (healthy volunteer; Soma 250 mg two times a day alone) was “suffered from the sedative side-effect of Soma” and the back pain (healthy volunteer; [8]) was “back pain was effectively reduced”. The sedation reported (healthy volunteer; [8]) was “did not feel sedated”.
In the case of `Nc1nnc(-c2cccc(Cl)c2Cl)c(N)n1` [Lamotrigine], the Psychiatric side-effects (treated patients) is given as “Sedation, depression, agitation, psychosis” and the “Psychosis, % of treated patients” value (treated patients) is given as “(0.3% of treated patients)”.
For `NCC1(CC(=O)O)CCCCC1` [Gabapentin, 1-(aminomethyl)-cyclohexylacetic acid], the Psychiatric side-effects (treated patients) is listed as “Sedation, agitation, fatigue”.
